Laboratory results: patent publication US20230147053A1, “FUSED N-HETEROCYCLIC COMPOUNDS AND METHODS OF USE THEREOF” (Araxes Pharma LLC, priority 2017, published 2023)

Each molecule was assayed against T1, KRAS G12C 1-169, his-tagged protein, GDP-loaded (Homo sapiens, UniProt P01116, G12C) (assay: Biochemical assay: covalent binding (modification) of KRAS G12C measured by mass spectrometry). Details: covalent binding to KRAS G12C after a thirty minute incubation period.
T1 construct: KRAS G12C 1-169, his-tagged protein, GDP-loaded
Experimental: Test compounds were prepared as 10 mM stock solutions in DMSO (Fisher cat #BP-231-100). KRAS G12C 1-169, his-tagged protein, GDP-loaded was diluted to 2 μM or 0.5 μM in buffer (20 mM Hepes, 150 mM NaCl, 1 mM MgCl2). Compounds were tested for activity as follows:
Compounds were diluted to 50× final test concentration in DMSO in 96-well storage plates. Compound stock solutions were vortexed before use and observed carefully for any sign of precipitation. Dilutions were as follow: • For 100 μM final compound concentration, compounds were diluted to 5000 μM (5 μL 10 mM compound stock+5 μL DMSO and mixed well by pipetting. • For 30 μM final compound concentration, compounds were diluted to 1500 μM (3 μL 10 mM compound stock+17 μL DMSO) and mixed well by pipetting. • For 10 μM final compound concentration, compounds were diluted to 500 μM (2 μL 10 mM compound stock+38 μL DMSO) and mixed well by pipetting. 49 μL of the stock protein solution was added to each well of a 96-well PCR plate (Fisher cat #1423027). 1 μl of the diluted 50× compounds were added to appropriate wells in the PCR plate using 12-channel pipettor. Reactions were mixed carefully and thoroughly by pipetting up/down with a 200 μL multi-channel pipettor. The plate was sealed well with aluminum plate seal, and stored in drawer at room temperature for 10 minutes, 30 minutes, 2 hours or 24 hours. 5 μL of 2% formic acid (Fisher cat #A117) in de-ionized H2O was then added to each well followed by mixing with a pipette. The plate was then resealed with aluminum seal and stored on dry ice until analyzed as described below.
The above described assays were analyzed by mass spectrometry according to one of the following two procedures:
The MS instrument is set to positive polarity, 2 GHz resolution, and low mass (1700) mode and allowed to equilibrate for 30 minutes. The instrument is then calibrated, switched to acquisition mode and the appropriate method loaded.
After another 30 minute equilibration time, a blank batch (i.e., buffer) is run to ensure equipment is operating properly. The samples are thawed at 37° C. for 10 minutes, briefly centrifuged, and transfer to the bench top. Wells A1 and H12 are spiked with 1 μL 500 μM internal standard peptide, and the plates centrifuged at 2000×g for 5 minutes. The method is then run and masses of each individual well recorded.
The masses (for which integration data is desired) for each well are pasted into the platemap and exported from the analysis. Masses for the internal standards are exported as well. The data at 50 ppm is extracted for the +19 charge state, and identity of well A1 is assigned using the internal standard spike and integrated. Peak data is exported as a TOF list and the above steps are repeated individually, for the +20, 21, 22, 23, 24, and 25 charge states.
The masses and peak intensities of KRAS G12C protein species were measured using a Dionex RSLCnano system (Thermo Scientific) connected to a Q Exactive Plus mass spectrometer (Thermo Scientific).
[…] of sample was each loaded onto a Aeris™ 3.6 μm WIDEPORE C4 200 A, LC Column 50×2.1 mm column maintained at 40° C. at a flow rate of 600 μL/min with […] (0.1% formic acid in acetonitrile). The liquid chromatography conditions were 20% solvent B for 1 minute, 20% to 60% solvent B for 1.5 minutes, 60% to 90% solvent for 0.5 minute, 90% solvent B for 0.2 minute, 90% to 20% solvent B for 0.2 minute, and then equilibrated for 1.6 minute before the following sample injection. The flow rate was maintained at 600 μL/min throughout the sample analysis.
The mass spectrometer was operated in profile mode at a resolution of 17500, 5 microscans, using 50 msec max injection time and an AGC target of 1×10^6, and a full mass range from 800-1850 m/z was recorded. The HCD trapping gas was optimized for maximum sensitivity for intact proteins. […]

| SMILES | Binding % |
| --- | --- |
| C=CC(=O)N1CC(c2ccc3c(c2)CCCN(c2cccc4[nH]ncc24)C3)C1 [Compound 5, 1-(3-(2-(1H-indazol-4-yl)-2,3,4,5-tetrahydro-1H-benzo[c]azepin-7-yl)azetidin-1-yl)prop-2-en-1-one] | + (+ indicates binding activity up to 5%) |
| C=CC(=O)N1CC(c2ccc3c(c2)CN(c2cc(O)cc4ccccc24)C3)C1 [Compound 6, 1-(3-(2-(3-hydroxynaphthalen-1-yl)isoindolin-5-yl)azetidin-1-yl)prop-2-en-1-one] | +++ (+++ indicates binding activity greater than 50%) |
| C=CC(=O)N1CC(c2ccc3c(c2)CN(c2cc(O)cc4ccccc24)C3=O)C1 [Compound 8, 5-(1-acryloylazetidin-3-yl)-2-(3-hydroxynaphthalen-1-yl)isoindolin-1-one] | +++ (+++ indicates binding activity greater than 50%) |
| C=CC(=O)N1CC(c2ccc3c(c2)CN(c2c(C)ccc4[nH]ncc24)C3=O)C1 [Compound 9, 5-(1-acryloylazetidin-3-yl)-2-(5-methyl-1H-indazol-4-yl)isoindolin-1-one] | + (+ indicates binding activity up to 5%) |
| C=CC(=O)N1CC(c2ccc3c(c2)C(=O)N(c2cc(O)cc4ccccc24)C3)C1 [Compound 10, 6-(1-acryloylazetidin-3-yl)-2-(3-hydroxynaphthalen-1-yl)isoindolin-1-one] | ++ (++ indicates binding activity from 5% to 50%) |
| C=CC(=O)N1CC(c2ccc3c(c2)C(=O)N(c2c(C)ccc4[nH]ncc24)C3)C1 [Compound 11, 6-(1-acryloylazetidin-3-yl)-2-(5-methyl-1H-indazol-4-yl)isoindolin-1-one] | + (+ indicates binding activity up to 5%) |
| C=CC(=O)N1CC(c2ccc3[nH]c(-c4cc(O)cc5ccccc45)cc3c2)C1 [Compound 14, 1-(3-(2-(3-hydroxynaphthalen-1-yl)-1H-indol-5-yl)azetidin-1-yl)prop-2-en-1-one] | +++ (+++ indicates binding activity greater than 50%) |
| C=CC(=O)N1CC(c2ccc3c(=O)n(-c4cc(O)cc5ccccc45)ccc3c2)C1 [Compound 18, 6-(1-acryloylazetidin-3-yl)-2-(3-hydroxynaphthalen-1-yl)isoquinolin-1(2H)-one] | +++ (+++ indicates binding activity greater than 50%) |
| C=CC(=O)N1CC(c2ccc3c(=O)n(-c4c(C)ccc5[nH]ncc45)ccc3c2)C1 [Compound 19, 6-(1-acryloylazetidin-3-yl)-2-(5-methyl-1H-indazol-4-yl)isoquinolin-1(2H)-one] | + (+ indicates binding activity up to 5%) |
| C=CC(=O)N1CC(c2ccc3cn(-c4cc(O)cc5ccccc45)c(=O)cc3c2)C1 [Compound 22, 6-(1-acryloylazetidin-3-yl)-2-(3-hydroxynaphthalen-1-yl)isoquinolin-3(2H)-one] | + (+ indicates binding activity up to 5%) |
| C=CC(=O)N1CC(c2ccc3cn(-c4c(C)ccc5[nH]ncc45)c(=O)cc3c2)C1 [Compound 23, 6-(1-acryloylazetidin-3-yl)-2-(5-methyl-1H-indazol-4-yl)isoquinolin-3(2H)-one] | + (+ indicates binding activity up to 5%) |
| C=CC(=O)N1CC(c2ccc3c(c2)NC(=O)N(c2cc(O)cc4ccccc24)C3)C1 [Compound 24, 7-(1-acryloylazetidin-3-yl)-3-(3-hydroxynaphthalen-1-yl)-3,4-dihydroquinazolin-2(1H)-one] | +++ (+++ indicates binding activity greater than 50%) |
| C=CC(=O)N1CC(c2ccc3c(c2)NC(=O)N(c2c(C)ccc4[nH]ncc24)C3)C1 [Compound 25, 7-(1-acryloylazetidin-3-yl)-3-(5-methyl-1H-indazol-4-yl)-3,4-dihydroquinazolin-2(1H)-one] | ++ (++ indicates binding activity from 5% to 50%) |
| C=CC(=O)N1CC(c2ccc3cc(-c4cc(O)cc5ccccc45)ncc3c2)C1 [Compound 26, 1-(3-(3-(3-hydroxynaphthalen-1-yl)isoquinolin-7-yl)azetidin-1-yl)prop-2-en-1-one] | ++ (++ indicates binding activity from 5% to 50%) |
| C=CC(=O)N1CCC(c2ccc3c(c2)CCN(c2c(C)ccc4[nH]ncc24)C3=O)C1 (centres unmarked) [Compound 32, 6-(1-acryloylpyrrolidin-3-yl)-2-(5-methyl-1H-indazol-4-yl)-3,4-dihydroisoquinolin-1(2H)-one] | + (+ indicates binding activity up to 5%) |
| C=CC(=O)N1CC(c2ccc3cc(-c4cc(O)cc5ccccc45)[nH]c3c2)C1 [Compound 33, 1-(3-(2-(3-hydroxynaphthalen-1-yl)-1H-indol-6-yl)azetidin-1-yl)prop-2-en-1-one] | ++ (++ indicates binding activity from 5% to 50%) |
| C=CC(=O)N1CC(c2ccc3cc(-c4cc(O)cc5ccccc45)n(CC(N)=O)c3c2)C1 [Compound 34, 2-(6-(1-acryloylazetidin-3-yl)-2-(3-hydroxynaphthalen-1-yl)-1H-indol-1-yl)acetamide] | + (+ indicates binding activity up to 5%) |
| C=CC(=O)N1CC(c2ccc3cc(-c4c(C)ccc5[nH]ncc45)[nH]c3c2)C1 [Compound 35, 1-(3-(2-(5-methyl-1H-indazol-4-yl)-1H-indol-6-yl)azetidin-1-yl)prop-2-en-1-one] | + (+ indicates binding activity up to 5%) |
| C=CC(=O)N1CC(c2ccc3c(Nc4cc(O)cc5ccccc45)ncnc3c2)C1 [Compound 36, 1-(3-(4-((3-hydroxynaphthalen-1-yl)amino)quinazolin-7-yl)azetidin-1-yl)prop-2-en-1-one] | + (+ indicates binding activity up to 5%) |
| C=CC(=O)N1CC(Nc2cccc3c(-c4cc(O)cc5ccccc45)ccnc23)C1 [Compound 37, 1-(3-((4-(3-hydroxynaphthalen-1-yl)quinolin-8-yl)amino)azetidin-1-yl)prop-2-en-1-one] | +++ (+++ indicates binding activity greater than 50%) |
| C=CC(=O)N1CC(c2ccc3c(Nc4c(C)ccc5[nH]ncc45)ncnc3c2)C1 [Compound 38, 1-(3-(4-((5-methyl-1H-indazol-4-yl)amino)quinazolin-7-yl)azetidin-1-yl)prop-2-en-1-one] | + (+ indicates binding activity up to 5%) |
| C=CC(=O)N1CC(NC(=O)c2ccc3c(-c4cc(O)cc5ccccc45)ccnc3c2)C1 [Compound 39, N-(1-acryloylazetidin-3-yl)-4-(3-hydroxynaphthalen-1-yl)quinoline-7-carboxamide] | ++ (++ indicates binding activity from 5% to 50%) |
| C=CC(=O)N1CC(c2ccc3c(c2)cc(-c2cc(O)cc4ccccc24)n3CC(N)=O)C1 [Compound 40, 2-(5-(1-acryloylazetidin-3-yl)-2-(3-hydroxynaphthalen-1-yl)-1H-indol-1-yl)acetamide] | ++ (++ indicates binding activity from 5% to 50%) |
